US6465457B1 (priority 1991, dated 2002)

Legend:
Assay type in all cases: in vivo
[1] = system: Pyricularia oryzae (Rice); details: 100 ppm a.i. foliar spray or root drench (approx. 40 ppm in dry soil), one or two days before inoculation
[2] = system: Erysiphe graminis tritici (Wheat); experiment: Foliar fungal disease test on plants: Erysiphe graminis tritici (Wheat); details: 100 ppm a.i. foliar spray or root drench (approx. 40 ppm in dry soil); plants inoculated 24 hours before treatment
Description: (§1) The compounds were tested against a variety of foliar fungal diseases of plants. The technique employed was as follows.
(§2) The plants were grown in John Innes Potting Compost (No 1 or 2) in 4 cm diameter minipots. The test compounds were formulated either by bead milling with aqueous DISPERSOL T or as a solution in acetone or acetone/ethanol which was diluted to the required concentration immediately before use. […] The sprays were applied to maximum retention and the root drenches to a final concentration equivalent to approximately 40 ppm a.i. in dry soil. TWEEN 20 was added to give a final concentration of 0.05% when the sprays were applied to cereals.
(§3) For most of the tests the compounds were applied to the soil (roots) or to the foliage (by spraying) one or two days before the plant was inoculated with the disease. An exception was the test on Erysiphe graminis in which the plants were inoculated 24 hours before treatment. Foliar pathogens were applied by spray as zoosporangial suspensions onto the leaves of test plants. After inoculation, the plants were put into an appropriate environment to allow infection to proceed and then incubated until the disease was ready for assessment. The period between inoculation and assessment varied from four to fourteen days according to the disease and environment.
(§4) The disease level present (i.e. leaf area covered by actively sporulating disease) on each of the treated plants was recorded using the following assessment scale:
(§5) Each assessment was then expressed as a percentage of the level of disease present on the untreated control plants. This calculated value is referred to as a POCO (Percentage of Control) value. An example of a typical calculation is as follows:
(§6) Disease level on untreated control=90
(§7) Disese level on treated plant=30 [formula]
(§8) This calculated POCO value is then rounded to the nearest of the values in the 9-point assessment scale shown above. In this particular example, the POCO value would be rounded to 30. If the calculated POCO falls exactly mid-way between two of the points, it is rounded to the lower of the two values.

[3] = system: Thanatephorus cucumeries (Rice); experiment: Foliar fungal disease test on plants: Thanatephorus cucumeries (Rice); details: 100 ppm a.i. foliar spray or root drench (approx. 40 ppm in dry soil), one or two days before inoculation
Description: as §1, §2, §3, §4, §5, §6, §7, §8

Septoria nodorum (Wheat) = experiment: Foliar fungal disease test on plants: Septoria nodorum (Wheat); details: 100 ppm a.i. foliar spray or root drench (approx. 40 ppm in dry soil), one or two days before inoculation
Description: as §1, §2, §3, §4, §5, §6, §7, §8

[4] = system: Plasmopara viticola (Vines); experiment: Foliar fungal disease test on plants: Plasmopara viticola (Vines); details: 100 ppm a.i. foliar spray or root drench (approx. 40 ppm in dry soil), one or two days before inoculation
Description: as §1, §2, §3, §4, §5, §6, §7, §8

[5] = system: Phytophthora infestans (Tomatoes); details: 100 ppm a.i. foliar spray or root drench (approx. 40 ppm in dry soil), one or two days before inoculation
[6] = system: Venturia inaequalis (Apples); experiment: Foliar fungal disease test on plants: Venturia inaequalis (Apples); details: 100 ppm a.i. foliar spray or root drench (approx. 40 ppm in dry soil), one or two days before inoculation
Description: as §1, §2, §3, §4, §5, §6, §7, §8

SMILES	POCO (Percentage of Control) disease level, Pyricularia oryzae (Rice) [1]	POCO (Percentage of Control) disease level, Erysiphe graminis tritici (Wheat) [2]	POCO (Percentage of Control) disease level, Thanatephorus cucumeries (Rice) [3]	POCO (Percentage of Control) disease level, Septoria nodorum (Wheat) (Septoria nodorum (Wheat))	POCO (Percentage of Control) disease level, Plasmopara viticola (Vines) [4]	POCO (Percentage of Control) disease level, Phytophthora infestans (Tomatoes) [5]	POCO (Percentage of Control) disease level, Venturia inaequalis (Apples) [6]
COC=C(C(=O)OC)c1ccccc1COC(=O)N(C)c1ccccc1F [3 (2)]	0 (0 = 0% disease present)	0 (0 = 0% disease present)	0 (0 = 0% disease present)	0 (0 = 0% disease present)	0 (0 = 0% disease present)	0 (0 = 0% disease present)	0 (0 = 0% disease present)
CCN(C(=O)OCc1ccccc1C(=COC)C(=O)OC)c1ccccc1F [3 (3)]	0 (0 = 0% disease present)	0 (0 = 0% disease present)	0 (0 = 0% disease present)	0 (0 = 0% disease present)	0 (0 = 0% disease present)	0 (0 = 0% disease present)	0 (0 = 0% disease present)
CCN(C(=O)OCc1ccccc1C(=COC)C(=O)OC)c1ccccc1 [5 (3)]	0 (0 = 0% disease present)	0 (0 = 0% disease present)	5 (5 = 3.1-5% disease present)	0 (0 = 0% disease present)	0 (0 = 0% disease present)	5 (5 = 3.1-5% disease present)	0 (0 = 0% disease present)
COC=C(C(=O)OC)c1ccccc1OC(=O)Nc1ccccc1 [5 (17)]	5 (5 = 3.1-5% disease present)	60 (60 = 30.1-60% disease present)	90 (90 and 94 = 60.1-100% disease present)	60 (60 = 30.1-60% disease present)	0 (0 = 0% disease present)	60 (60 = 30.1-60% disease present)	1 (1 = 0.1-1% disease present)
COC=C(C(=O)OC)c1ccccc1COC(=O)N(C)c1cccc([N+](=O)[O-])c1 [6 (2)]	0 (0 = 0% disease present)	0 (0 = 0% disease present)	30 (30 = 20.1-30% disease present)	0 (0 = 0% disease present)	0 (0 = 0% disease present)	10 (10 = 5.1-10% disease present)	0 (0 = 0% disease present)
CCN(C(=O)OCc1ccccc1C(=COC)C(=O)OC)c1cccc([N+](=O)[O-])c1 [6 (3)]	0 (0 = 0% disease present)	0 (0 = 0% disease present)	90 (90 and 94 = 60.1-100% disease present)	0 (0 = 0% disease present)	0 (0 = 0% disease present)	10 (10 = 5.1-10% disease present)	0 (0 = 0% disease present)
COC=C(C(=O)OC)c1ccccc1COC(=O)Nc1ccc(F)cc1F [24 (1)]	90 (90 and 94 = 60.1-100% disease present)	0 (0 = 0% disease present)	60 (60 = 30.1-60% disease present)	60 (60 = 30.1-60% disease present)	0 (0 = 0% disease present)	20 (20 and 24 = 10.1-20% disease present)	0 (0 = 0% disease present)
COC=C(C(=O)OC)c1ccccc1COC(=O)N(C)c1ccc(F)cc1F [24 (2)]	0 (0 = 0% disease present)	0 (0 = 0% disease present)	0 (0 = 0% disease present)	0 (0 = 0% disease present)	0 (0 = 0% disease present)	0 (0 = 0% disease present)	0 (0 = 0% disease present)
COC=C(C(=O)OC)c1ccccc1COC(=O)Nc1ccc(OC)nc1 [32 (1)]	90 (90 and 94 = 60.1-100% disease present)	20 (20 and 24 = 10.1-20% disease present)	90 (90 and 94 = 60.1-100% disease present)	30 (30 = 20.1-30% disease present)	0 (0 = 0% disease present)	30 (30 = 20.1-30% disease present)	60 (60 = 30.1-60% disease present)
COC=C(C(=O)OC)c1ccccc1COC(=O)Nc1ccccc1C(=O)OC [33 (1)]	90 (90 and 94 = 60.1-100% disease present)	60 (60 = 30.1-60% disease present)	90 (90 and 94 = 60.1-100% disease present)	90 (90 and 94 = 60.1-100% disease present)	90 (90 and 94 = 60.1-100% disease present)	90 (90 and 94 = 60.1-100% disease present)	0 (0 = 0% disease present)
